Calls of active or inactive are those of the source.

A short description of data set [1]: Volume of distribution at steady state in dog at 1 mg/kg, iv administered as 5 mins infusion. The format is ADME, organism-based, Canis lupus familiaris. Conditions: in vivo, read-out: Vdss.
The nature of data set [2]: Total plasma clearance in mouse at 1 mg/kg, iv administered as 5 mins infusion. The format is ADME, organism-based.
The nature of data set [3]: AUC in cynomolgus monkey at 5 mg/kg, po. The format is ADME, organism-based, Macaca fascicularis. Conditions: in vivo.
Data set [4] can be described thus: AUC in dog at 1 mg/kg, iv administered as 5 mins infusion. The format is ADME, organism-based, Canis lupus familiaris. The note with it: in vivo.
Data set [5] is described as follows: Half life in mouse at 1 mg/kg, iv administered as 5 mins infusion. The format is ADME, organism-based. Conditions: in vivo.
The nature of data set [6]: AUC in dog at 5 mg/kg, po. The format is ADME, organism-based, Canis lupus familiaris. The note with it: in vivo.
The target in data set [7] is Muscarinic acetylcholine receptor M1 (Homo sapiens) (UniProt P11229). Briefly: Activity at human muscarinic M1 receptor.
Muscarinic acetylcholine receptor M1 (Homo sapiens), sequence (P11229 whole entry): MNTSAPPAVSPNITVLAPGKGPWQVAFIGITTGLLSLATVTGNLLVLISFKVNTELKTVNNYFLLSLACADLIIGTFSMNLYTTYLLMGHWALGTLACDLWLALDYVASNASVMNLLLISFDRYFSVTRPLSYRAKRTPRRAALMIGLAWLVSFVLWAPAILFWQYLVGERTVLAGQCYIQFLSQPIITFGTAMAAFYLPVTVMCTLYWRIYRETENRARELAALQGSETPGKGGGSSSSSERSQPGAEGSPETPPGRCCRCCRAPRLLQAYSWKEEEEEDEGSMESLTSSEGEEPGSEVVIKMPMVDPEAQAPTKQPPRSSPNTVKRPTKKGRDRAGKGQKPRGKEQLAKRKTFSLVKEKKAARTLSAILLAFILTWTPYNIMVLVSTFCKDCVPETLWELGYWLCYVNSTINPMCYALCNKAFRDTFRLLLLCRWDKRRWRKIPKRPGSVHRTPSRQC
For data set [8], the target named is Muscarinic acetylcholine receptor M3 (Homo sapiens) (UniProt P20309). The data set is described as follows: Activity at human muscarinic M3 receptor.
Muscarinic acetylcholine receptor M3 (Homo sapiens), sequence (P20309 whole entry, looked up, the tested form may be a part): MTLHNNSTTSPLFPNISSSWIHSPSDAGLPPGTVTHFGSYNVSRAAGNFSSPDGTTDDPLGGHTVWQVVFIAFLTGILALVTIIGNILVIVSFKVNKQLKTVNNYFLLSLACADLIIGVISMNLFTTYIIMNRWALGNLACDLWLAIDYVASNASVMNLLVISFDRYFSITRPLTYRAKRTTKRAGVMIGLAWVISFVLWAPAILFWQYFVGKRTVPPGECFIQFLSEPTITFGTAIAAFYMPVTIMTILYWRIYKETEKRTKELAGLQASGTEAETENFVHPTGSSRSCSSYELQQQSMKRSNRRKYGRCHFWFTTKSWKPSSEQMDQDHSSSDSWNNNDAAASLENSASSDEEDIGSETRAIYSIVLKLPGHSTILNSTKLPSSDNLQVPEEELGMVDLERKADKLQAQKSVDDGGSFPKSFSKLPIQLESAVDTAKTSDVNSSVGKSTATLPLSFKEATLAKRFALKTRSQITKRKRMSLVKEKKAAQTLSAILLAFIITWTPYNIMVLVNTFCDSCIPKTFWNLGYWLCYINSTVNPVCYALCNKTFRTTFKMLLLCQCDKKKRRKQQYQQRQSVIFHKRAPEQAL
Data set [9] can be described thus: Total plasma clearance in cynomolgus monkey at 1 mg/kg, iv administered as 5 mins infusion. The format is ADME, organism-based, Macaca fascicularis.
For data set [10], the target named is Neuronal acetylcholine receptor; alpha3/beta4 (Rattus norvegicus, UniProt P04757+P12392). The data set is described as follows: Agonist activity at rat alpha3beta4 nAChR expressed in HEK293 cells assessed as increase in Ca2+ flux by Fluo-4 AM dye based FLIPR assay. The format is cell-based. (Calcium flux is commonly read through the fluorescence of an indicator in the cells.)
Neuronal acetylcholine receptor; alpha3/beta4, sequence (P04757 whole entry): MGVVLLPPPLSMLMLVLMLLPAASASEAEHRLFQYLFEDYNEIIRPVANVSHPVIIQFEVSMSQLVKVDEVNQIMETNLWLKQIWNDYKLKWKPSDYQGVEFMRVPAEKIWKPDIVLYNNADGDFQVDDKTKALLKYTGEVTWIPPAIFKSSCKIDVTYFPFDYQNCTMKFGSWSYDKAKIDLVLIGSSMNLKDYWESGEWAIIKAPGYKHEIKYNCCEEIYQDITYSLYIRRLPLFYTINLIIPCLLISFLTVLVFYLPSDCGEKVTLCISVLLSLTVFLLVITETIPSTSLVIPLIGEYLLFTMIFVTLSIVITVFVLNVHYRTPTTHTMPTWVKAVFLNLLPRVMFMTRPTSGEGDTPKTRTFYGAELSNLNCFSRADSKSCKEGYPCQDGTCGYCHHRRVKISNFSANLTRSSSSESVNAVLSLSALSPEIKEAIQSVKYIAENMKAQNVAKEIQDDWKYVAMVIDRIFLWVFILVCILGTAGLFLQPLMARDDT
Neuronal acetylcholine receptor; alpha3/beta4, sequence (P12392 whole entry): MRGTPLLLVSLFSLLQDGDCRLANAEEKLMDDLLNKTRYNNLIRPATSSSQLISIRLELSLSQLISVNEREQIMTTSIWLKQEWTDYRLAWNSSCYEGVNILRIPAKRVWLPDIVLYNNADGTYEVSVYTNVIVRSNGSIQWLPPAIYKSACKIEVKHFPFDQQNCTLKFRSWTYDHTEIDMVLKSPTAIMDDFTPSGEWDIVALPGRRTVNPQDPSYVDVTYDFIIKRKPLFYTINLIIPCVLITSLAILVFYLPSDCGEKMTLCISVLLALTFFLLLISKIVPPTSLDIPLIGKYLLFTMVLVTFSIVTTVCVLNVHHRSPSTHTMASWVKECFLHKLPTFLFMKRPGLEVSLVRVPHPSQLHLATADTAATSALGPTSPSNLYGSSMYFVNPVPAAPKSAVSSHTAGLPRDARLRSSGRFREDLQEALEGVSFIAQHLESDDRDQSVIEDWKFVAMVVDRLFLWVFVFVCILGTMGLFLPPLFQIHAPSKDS

Data set [11] deals with Neuronal acetylcholine receptor; alpha4/beta2 (Rattus norvegicus, UniProt P09483+P12390). Briefly: Agonist activity at rat alpha4beta2 nAChR expressed in HEK293 cells assessed as increase in Ca2+ flux by Fluo-4 AM dye based FLIPR assay. The format is cell-based.
Neuronal acetylcholine receptor; alpha4/beta2, sequence (P09483 whole entry): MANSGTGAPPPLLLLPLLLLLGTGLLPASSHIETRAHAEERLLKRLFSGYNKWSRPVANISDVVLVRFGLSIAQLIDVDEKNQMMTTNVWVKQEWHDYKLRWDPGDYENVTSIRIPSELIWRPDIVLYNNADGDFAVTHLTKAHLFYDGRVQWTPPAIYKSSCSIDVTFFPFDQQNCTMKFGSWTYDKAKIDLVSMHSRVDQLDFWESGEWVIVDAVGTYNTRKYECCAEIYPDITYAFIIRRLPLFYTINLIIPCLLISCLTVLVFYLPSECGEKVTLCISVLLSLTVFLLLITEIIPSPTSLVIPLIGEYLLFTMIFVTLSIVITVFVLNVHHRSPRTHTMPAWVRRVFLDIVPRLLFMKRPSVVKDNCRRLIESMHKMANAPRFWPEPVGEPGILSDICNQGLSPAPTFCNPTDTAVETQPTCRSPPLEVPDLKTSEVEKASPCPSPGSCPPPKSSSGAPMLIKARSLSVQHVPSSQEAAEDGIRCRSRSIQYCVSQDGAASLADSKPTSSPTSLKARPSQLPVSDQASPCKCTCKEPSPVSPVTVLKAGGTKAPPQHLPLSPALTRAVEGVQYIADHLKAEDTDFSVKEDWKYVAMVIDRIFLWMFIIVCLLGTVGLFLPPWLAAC
Neuronal acetylcholine receptor; alpha4/beta2, sequence (P12390 whole entry): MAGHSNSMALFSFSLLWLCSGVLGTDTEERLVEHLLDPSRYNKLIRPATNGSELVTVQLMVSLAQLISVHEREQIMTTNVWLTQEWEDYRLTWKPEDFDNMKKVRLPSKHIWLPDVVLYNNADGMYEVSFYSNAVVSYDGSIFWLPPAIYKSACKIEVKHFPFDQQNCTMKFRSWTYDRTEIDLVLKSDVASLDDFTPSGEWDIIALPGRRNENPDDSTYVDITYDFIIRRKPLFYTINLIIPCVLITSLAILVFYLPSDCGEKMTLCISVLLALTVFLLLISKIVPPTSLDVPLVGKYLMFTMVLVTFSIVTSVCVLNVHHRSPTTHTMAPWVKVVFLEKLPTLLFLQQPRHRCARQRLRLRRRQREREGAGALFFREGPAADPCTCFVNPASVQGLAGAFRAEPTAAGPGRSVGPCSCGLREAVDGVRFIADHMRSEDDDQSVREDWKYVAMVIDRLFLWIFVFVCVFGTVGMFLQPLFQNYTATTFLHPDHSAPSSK
Data set [12] in a line: AUC in rat at 10 mg/kg, po. The format is ADME, organism-based. Conditions: in vivo.
A short description of data set [13]: Volume of distribution at steady state in cynomolgus monkey at 1 mg/kg, iv administered as 5 mins infusion. The format is ADME, organism-based, Macaca fascicularis. The note with it: in vivo, read-out: Vdss.
The target in data set [14] is Neuronal acetylcholine receptor subunit alpha-7 (Homo sapiens, UniProt P36544). The data set is described as follows: Agonist activity at human alpha7 nAChR expressed in HEK293 cells co-expressing human RIC3 assessed as area under current curve at holding potential of -90 mV by whole-cell voltage clamp electrophysiology method. The format is cell-based.
Neuronal acetylcholine receptor subunit alpha-7, sequence (P36544 whole entry): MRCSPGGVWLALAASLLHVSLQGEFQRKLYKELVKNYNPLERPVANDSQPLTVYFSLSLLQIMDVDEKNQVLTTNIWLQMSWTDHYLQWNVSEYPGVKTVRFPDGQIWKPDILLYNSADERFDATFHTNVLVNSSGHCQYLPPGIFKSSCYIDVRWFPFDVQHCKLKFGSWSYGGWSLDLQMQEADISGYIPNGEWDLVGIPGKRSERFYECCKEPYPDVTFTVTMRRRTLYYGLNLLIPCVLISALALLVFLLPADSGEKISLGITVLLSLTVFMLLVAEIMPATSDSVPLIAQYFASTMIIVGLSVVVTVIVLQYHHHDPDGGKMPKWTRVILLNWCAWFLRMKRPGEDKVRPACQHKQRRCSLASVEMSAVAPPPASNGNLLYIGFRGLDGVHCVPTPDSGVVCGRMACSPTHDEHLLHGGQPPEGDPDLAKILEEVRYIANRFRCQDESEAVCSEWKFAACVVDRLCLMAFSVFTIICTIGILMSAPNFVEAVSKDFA

On to `c1cn(-c2cc(NC3=NC[C@@]4(CN5CCC4CC5)O3)ncn2)cn1`, for which the Vd in data set [1] was found to be 5.5 L/kg; in data set [13], 5.7 L/kg. Also, the results for the clearance in [2] and in [9] were 96 mL/min/kg and 17 mL/min/kg, respectively. The AUC in data set [3] stood at 11 µM·h; in [6] it was 19 µM·h; in [12], 7.2 µM·h. The AUC at 5 min in [4] turned out to be 3.4 µM·h. This compound also had a half-life in data set [5] of 1.1 h. In addition, the outcome in data set [7] and in data set [8] was inactive. In addition, the EC50 was more than 100 µM in [10], more than 100 µM in data set [11] and 0.3 µM in data set [14].

Usually clearance stands for a measure of how efficiently the substance is removed, as volume per time. A word on the AUC: it is the area under the concentration-time curve, a measure of exposure. The term half-life denotes the time needed for the level to fall by half in the phase considered. One may read the EC50 as the concentration that produces a half-maximal response.

The values are drawn from ChEMBL document CHEMBL4002647, “BMS-933043, a Selective α7 nAChR Partial Agonist for the Treatment of Cognitive Deficits Associated with Schizophrenia” (ACS Med Chem Lett, 2017).
